From US20070167499A1, “Biaryl linked hydroxamates: preparation and pharmaceutical applications” (A*BIO Pte Ltd., priority 2003, published 2007)

Tested on: Ramos Burkitt-lymphoma cells
Assay: Apoptosis assay (Annexin V / PI flow cytometry)
Assay type: cell-based, human
Conditions: 48 h after treatment with 10 μM
From the text: In various therapies such as for proliferative disorders like cancer, the selective induction of apoptosis in proliferating cells such as tumor cells is one of the desirable approaches, and can be mediated by treatment with various anti-proliferative compounds [Blagosklonny MV, Oncogene, 23(16): 2967 (2004); Kaufmann and Eamshaw, Exp Cell Res. 256(1): 42-9 (2000)]. Programmed cell death or apoptosis is the cellular response to stress factors such as DNA damage introduced during conventional anti-cancer treatment. The concerted sequence of events during apoptosis, clearly differentiate this pathway from a non-coordinated form of cell death called necrosis. During the course of apoptosis, characteristic phenotypical cellular changes occur, which include the condensation of chromatin, the shrinkage of cells and finally the fragmentation of chromosomal DNA. One of the very early change caused by apoptotic events occurs in the phospholipids bilayer of the plasma membrane. The phospholipid phosphatidylserine is translocated from the inner to the outer side of the plasma-membrane and, as a result, is exposed to the extracellular space. One way of detecting early apoptotic cells is to determine the amount of phosphatidyl-serine at the extracellular side of the plasma-membrane which is accomplished by the standard flow cytometric method of Annexin V staining. The phospholipids recognizing protein Annexin V binds with high affinity to these inverted and exposed phosphatidyl-serines.
The ability of the compounds in this invention to induce apoptosis was tested in Ramos Burkitt-lymphoma cells. This cell line is one of the gold standard cell lines commonly used as a tissue culture model for B cell lymphoma. Representative compounds as indicated below were added to 80,000 cells per 500 μl growth medium (RPMI1640 medium supplemented with 2 mM L-Glutamine, 10% heat-inactivated FBS, 1 mM Na-Pyruvate and 10 mM HEPES) in 24 well format at various concentrations. Two days after the start of treatment, cells were collected and subjected to the Annexin V staining protocol following the instructions of the manufacturer (BD Biosciences). By using propidium iodide (PI) as a viability control, cells that stain positive for Annexin V, but negative for PI, are undergoing apoptosis.

Q: Which “% cells in late apoptosis (Ramos)” value does the source give for `O=C(Cc1ccc(-c2csc(NC(=O)Cc3ccccc3)n2)s1)NO` [Example 1, N-Hydroxy-2-[5-(2-phenylacetylamino-thiazol-4-yl)-thiophen-2-yl]-acetamide] here?
A: The value was 76%.
